Results on twelve compounds are retold here after article PMC7401278, “Sortase A-Inhibitory Metabolites from a Marine-Derived Fungus Aspergillus sp” (Marine Drugs, 2020).

Data set [1] in a line: Cytotoxicity assay (SRB), A549. As to conditions: human, A549 (lung cancer) cells, A549, 72 h. The format is cell-based. As for the experimental part:
(§1) Because SrtA inhibitors are expected to serve as anti-infective agents and inhibit bacterial pathogenesis without affecting cell viability, the minimum inhibitory concentrations (MICs) of these compounds were also measured to exclude the possible effects of test compounds on S. aureus cell adhesion to the eukaryotic cell matrix protein fibronectin owing to the inhibition of cell growth.
(§2) The effect of compounds (1–8) on cell proliferation was measured by the sulforhodamine B (SRB) cellular protein-staining method. In brief, A549 (lung cancer) and K562 (leukemia) cells (1 × 10^4 cells in 190 μL of complete DMEM) were seeded in 96-well plates with various concentrations of compounds (1–8) and incubated at 37 °C in a humidified atmosphere with 5% CO2. After 72 h of compound (1–8) treatment, the cells were fixed with 10% TCA solution for 1 h, and cellular proteins were stained with a solution of 0.4% SRB in 1% acetic acid. The stained cells were dissolved in 10 mM Tris buffer (pH 10.0). The effect of compounds (1–8) on cell viability was calculated as a percentage relative to a solvent-treated control, and the IC50 values were calculated using a nonlinear regression analysis (percent survival versus concentration). Etoposide was used as a positive control.

In data set [2] the target is T1, recombinant SrtA derived from S. aureus ATCC6538p (Staphylococcus aureus, UniProt Q2FV99).
T1 construct: made in house; host or cells: Escherichia coli
In words: SrtA inhibition assay (fluorescence, cleavage of dabcyl-LPETG-edans). As to conditions: 37 °C, 1 h. The format is biochemical. On the procedure:
Recombinant SrtA derived from S. aureus ATCC6538p was purified from Escherichia coli extracts using metal chelate-affinity chromatography. The enzyme activity was determined from the fluorescence intensity upon cleavage of a peptide substrate containing the LPETG motif. Throughout the separation process, the crude extract and chromatographic fractions containing fungal metabolites of strain F452 inhibited the activity of SrtA. Accordingly, the same bioassay was performed using pure compounds.
The srtA gene from S. aureus ATCC6538p was expressed and recombinant SrtA was purified as previously described. The SrtA inhibition test was carried out by analyzing the increased fluorescence intensity resulting from the cleavage of synthetic peptide substrate dabcyl-LPETG-edans (AnaSpec, Inc., Fremont, CA, USA) with slight modification. The reaction was carried out with 100 μL buffer (50 mM Tris-HCl, 5 mM CaCl2, and 150 mM NaCl, pH 7.5), 7.5 µM synthetic peptide, 7.5 µM purified SrtA, and test samples at various concentrations. […] The SrtA inhibition assay was conducted at 37 °C for 1 h, and inhibition was quantified fluorometrically using a microplate reader (FLx800, BioTek Instruments, Winooski, VT, USA) at excitation and emission wavelengths of 350 and 495 nm, respectively. pHMB and berberine chloride were used as reference inhibitors of SrtA.

Data set [3] can be described thus: Cytotoxicity assay (SRB), K562. The settings on record: human, K562 (leukemia) cells, K562, 72 h. It counts as cell-based. As for the experimental part: as §1, §2
For data set [4], the system named is S. aureus ATCC6538p. In words: Antibacterial activity assay (MIC). It counts as cell-based. The settings on record: Staphylococcus aureus, overnight at 37 °C. As for the experimental part: as §1
The MICs of test compounds were determined as previously described. S. aureus ATCC6538p (5 mL) was cultured in tryptic soy broth to saturation at 37 °C and diluted to an OD600 of 0.01. The culture was incubated for an additional 2 h and diluted to an OD600 of 0.005. In each well of a 96-well plate, 180 µL of cells was mixed with 20 µL of a concentrated test compound solution in 10% DMSO (final concentration, 1% DMSO). Culture plates were incubated overnight at 37 °C, and the OD600 was measured using a Multiskan Spectrum spectrophotometer (Thermo Labsystems Inc., Beverly, MA, USA). MIC values were defined as the lowest concentration of the test compounds inhibiting cell growth. Ampicillin was used as a positive control.

Data set [5] concerns the target T2, SrtA (Staphylococcus aureus, UniProt Q2FV99).
T2 construct: made in house; host or cells: Escherichia coli
As to the kind of experiment: SrtA enzyme kinetics (Lineweaver-Burk, Dixon plot, dialysis). As to conditions: for type of inhibition: Lineweaver and Burk plot, at IC50 or twofold IC50; for binding to SrtA (reversibility): enzyme activity recovered by dialysis within 2 h. The format is biochemical. On the procedure: To determine the type of inhibition, kinetic studies were performed with compounds 1 and 3 at IC50 or twofold IC50 based on a Lineweaver and Burk plot (Figure 2). Inhibitor constants were obtained by a Dixon plot. […] Moreover, the binding of compounds 1 and 3 to SrtA was reversible because the enzyme activity was indeed recovered by dialysis within 2 h, excluding the possible existence of a covalent bond between inhibitor and enzyme.
All sortase (SrtA) assays were performed at 37 °C in SrtA enzyme buffer as described above. The inhibitors 1 and 3 were dissolved in DMSO and immediately diluted to the desired working concentration with the same SrtA buffer. The enzymatic inhibition measurements were carried out at different substrate concentrations in the presence and absence of a given concentration of inhibitor, and their kinetics were evaluated by the Lineweaver and Burk plot method. For the dialysis kinetic studies, a solution of enzyme (0.96 mL, 75 μM) and fixed inhibitor concentration (0.04 mL) was prepared and dialyzed against 100 mL buffer at 37 °C for 2 h using regenerated cellulose dialysis membranes SPECTRAPOR® (Rancho Dominguez, CA, USA). Aliquots of 100 μL of the enzyme-inhibitor mixture were taken in time intervals of 0, 30, 60, 90, and 120 min and added to 0.020 mL of substrate (7.5 μM), and after an hour of incubation the enzyme activity was measured. A control solution prepared with enzyme and buffer (SrtA buffer, 100 μL; SrtA, 7.5 μM) was treated similarly.

Data set [6] concerns S. aureus strain Newman (wild-type) adhesion to fibronectin. As to the kind of experiment: Fibronectin-binding assay. It counts as cell-based, Staphylococcus aureus. An excerpt: An active SrtA enzyme is required for the attachment of S. aureus to eukaryotic cell matrix proteins, such as fibronectin and fibrinogen, thus accelerating bacterial adhesion to host tissues and subsequent invasion. The srtA^− mutant strain cannot bind these proteins. Thus, SrtA inhibitors should inhibit SrtA activity in vivo and in turn reduce fibronectin-binding protein surface display. Initially, the SrtA-mediated fibronectin-binding capacities of S. aureus strain Newman (wild-type) and its isogenic srtA knockout mutant (srtA^−) to fibronectin were evaluated. […] Based on SrtA inhibition intensity, compound 1 was selected. The results of the inhibition of S. aureus adhesion to fibronectin via fibronectin-binding protein by compound 1 are shown in Figure 3b.
S. aureus strains used were Newman (wild-type) and the isogenic srtA knockout mutant (srtA^−). These strains were cultured in tryptic soy broth at 37 °C at 200 rpm up to mid-log phase (OD600 = 0.5). The fibronectin-binding assay was performed as described previously. Cells were treated with test compounds at their indicated concentrations. Every 30 min for 2.5 h, a 0.65 mL cell suspension was centrifuged at 10,000× g for 10 min, and the supernatant was eliminated. […] Plates were dried overnight and absorbance was measured at 560 nm using a microplate reader.

Data set [7] deals with PC-12 cells. Also on record: method as in PMID 14698172. The settings on record: cited from earlier work.
In data set [8] the test system is Bacillus subtilis. Also on record: method as in PMID 26363876. The settings on record: cited from earlier work.
Data set [9] has as its system human prostate cancer cell line PC3. Also on record: method as in PMID 26363876. The settings on record: cited from earlier work.
The subject of data set [10] is Colletotrichum acutatum. Also on record: method as in PMID 26998701. The settings on record: cited from earlier work.
Setting [11] is: SrtA IC50, recombinant SrtA, value in parentheses.

Values after ≈ are worked out from the molar mass of the structure shown. Like-named read-outs stand apart in the source and are kept apart here.

T1 sequence (Q2FV99 whole entry): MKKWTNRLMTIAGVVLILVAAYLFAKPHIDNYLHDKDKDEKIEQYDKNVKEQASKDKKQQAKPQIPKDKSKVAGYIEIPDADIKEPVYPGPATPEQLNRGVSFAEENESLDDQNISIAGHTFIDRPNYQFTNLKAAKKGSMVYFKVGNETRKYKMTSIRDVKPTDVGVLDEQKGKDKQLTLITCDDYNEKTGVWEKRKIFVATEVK
T2 sequence (Q2FV99 whole entry): as above

As for `CC1C(=O)N2c3ccccc3C3(O)CC(n4cnc5ccccc5c4=O)C(=O)N1C23` (stereo not drawn) [Compound 4, isochaetominine A], the IC50 at 72 h in [1] and in [3] was 13 to 50 µM throughout. For the same compound, the IC50 (usually the concentration at which inhibition is half-maximal) came out at 268 ± 4.1 µM in [2] (SrtA IC50, recombinant SrtA) and 267.9 ± 1.5 µM in data set [2] (setting [11]). For the same compound, the MIC (usually the lowest concentration found to suppress growth) in data set [4] was more than 318 µM; in [4] (value in parentheses), more than 128 µg/mL.

Take `CCC1C(=O)N2c3ccccc3C3(O)CC(n4cnc5ccccc5c4=O)C(=O)N1C23` (stereo not drawn) [Compound 5, isochaetominine B]: the 50% inhibitory concentration (IC50) at 72 h in data set [1] and in data set [3] was 13 to 50 µM throughout. The IC50 in [2] (SrtA IC50, recombinant SrtA) was found to be 232 ± 3.7 µM; in [2] (setting [11]), 232.4 ± 1.4 µM. Moreover, the MIC in data set [4] is more than 307 µM; in data set [4] (value in parentheses), more than 128 µg/mL.

`CC1CCC2C(C=CC(C)(O)C2(C)C(=O)CCO)C1` (stereo not drawn) [Compound 1, aspermytin A]: the IC50 at 72 h in data set [1] and in data set [3] was more than 100 µM each time. Moreover, affinity in data set [5] was put at a Ki of 265 µM. For the same compound, in [5], the type of inhibition entry is on record as “mixed inhibitor”. For the same compound, the “binding to SrtA (reversibility)” value in data set [5] is reported as “reversible”. Further, the IC50 in data set [2] (SrtA IC50, recombinant SrtA) was 146 ± 2.3 µM; in [2] (setting [11]), 146 ± 0.6 µM. For the same compound, the “onset and magnitude of inhibition of Newman strain adhesion to fibronectin” value in data set [6] (4× the SrtA IC50 value) is “comparable to the behavior of the untreated srtA knockout mutant”. The “bacterial adherence to fibronectin-coated surfaces” value in [6] (strain Newman, 0-, 1-, 2-, or 4-fold the SrtA IC50) was “significantly reduced”. Also, the neurotrophic effects result in [7] is given as “significant neurotrophic effects”. The minimum inhibitory concentration (MIC) in data set [4] is more than 480 µM; in [4] (value in parentheses), more than 128 µg/mL.

With `CCC(C)C1NC(=O)C(C(C)C)n2c1nc1ccc(OC)cc1c2=O` (stereo not drawn) [Compound 2, versicomide A], the IC50 at 72 h in data set [1] and in data set [3] was 13 to 50 µM in each case. The IC50 in data set [2] (SrtA IC50, recombinant SrtA) was 269 ± 3.9 µM; in [2] (setting [11]) it was 269.3 ± 1.4 µM. Further, the MIC in [4] is more than 373 µM; in [4] (value in parentheses), more than 128 µg/mL.

Consider `COc1ccc2cc3[n+](cc2c1OC)CCc1cc2c(cc1-3)OCO2` [Berberine chloride, berberine chloride, reference compound], for which the IC50 is 85.9 ± 1.2 µM in [2] (SrtA IC50, recombinant SrtA) and 94.8 µM in data set [2] (setting [11]). Moreover, the results for the MIC in data set [4] and in [4] (value in parentheses) were more than 332 µM and more than 128 µg/mL, respectively.

As for `CC(C)C1C(=O)N2c3ccccc3C3(O)CC(n4cnc5ccccc5c4=O)C(=O)N1C23` (stereo not drawn) [Compound 6, isochaetominine C], the “inhibition against Bacillus subtilis” value in data set [8] was “weak inhibition”. Also, the half-maximal inhibitory concentration (IC50) at 72 h in [1] and in [3] was 13 to 50 µM each time. The IC50 in data set [2] (SrtA IC50, recombinant SrtA) worked out at 216 ± 2.5 µM; in data set [2] (setting [11]), 216.3 ± 1.1 µM. In addition, the minimal inhibitory concentration (MIC) was more than 297 µM in data set [4] and more than 128 µg/mL in [4] (value in parentheses).

`CC(C)C1C(=O)N2c3ccccc3C3(O)CC(n4cnc5ccccc5c4=O)C(=O)N1C23` (stereo not drawn) [Compound 7, 14-epi-isochaetominine C]: the IC50 in data set [2] (SrtA IC50, recombinant SrtA) amounted to 237 ± 3.8 µM; in [2] (setting [11]), 237.2 ± 1.2 µM. For the same compound, the cytotoxic activity result in [9] is listed as “weak cytotoxic activity”.

As to `CC1(C)S[C@@H]2[C@H](NC(=O)[C@H](N)c3ccccc3)C(=O)N2[C@H]1C(=O)O` [Ampicillin, reference compound], the minimum inhibitory concentration (MIC) in data set [4] came out at 0.4 µM; in [4] (value in parentheses), 0.1 µg/mL.

`CCC(C)C1NC(=O)C(C(C)C)n2c1nc1c(c2=O)C=C(OC)C=CO1` (stereo not drawn) [Compound 3, versicoloid A]: the IC50 at 72 h in data set [1] and in data set [3] was 13 to 50 µM each time. Also, in data set [5], the Ki (as a rule, a dissociation constant, usually derived from enzyme kinetics or from competition with a known ligand) came out at 83 µM. For the same compound, in [5], the type of inhibition entry is reported as “uncompetitive inhibitor”. In addition, in data set [5], the “binding to SrtA (reversibility)” value was “reversible”. Moreover, the IC50 came to 193 ± 2.5 µM in [2] (SrtA IC50, recombinant SrtA) and 193.4 ± 0.899 µM in data set [2] (setting [11]). Besides, the “minimum inhibitory concentration (MIC)” value in data set [10] is 1.6 µg/mL (≈ 4.45 µM). In addition, the figures for the MIC in data set [4] and in [4] (value in parentheses) were more than 356 µM and more than 128 µg/mL, respectively.

As to `COc1cc([C@@H]2c3cc4c(cc3[C@@H](O[C@@H]3O[C@@H]5CO[C@@H](C)O[C@H]5[C@H](O)[C@H]3O)[C@H]3COC(=O)[C@H]23)OCO4)cc(OC)c1O` [etoposide, reference compound], the half-maximal inhibitory concentration (IC50) at 72 h in data set [1] and in [3] was 0.5 µM each time.

As to `CC12NC(=O)C(Cc3c1[nH]c1ccccc31)n1c2nc2ccccc2c1=O` (stereo not drawn) [Compound 8, fumiquinazoline K], the IC50 at 72 h in data set [1] and in data set [3] was more than 100 µM each time. In addition, the IC50 was 235 ± 2.6 µM in [2] (read-out: SrtA IC50, recombinant SrtA) and 235.1 ± 0.9 µM in data set [2] (read-out: SrtA IC50, recombinant SrtA, value in parentheses). Moreover, the MIC in data set [4] was more than 359 µM; in data set [4] (value in parentheses), more than 128 µg/mL.

Consider `O=C(O)c1cc[c]([Hg][OH])cc1` [pHMB, para-hydroxymercuribenzoic acid, reference compound], for which the IC50 in data set [2] (recombinant SrtA, read-out: SrtA IC50) was determined as 112 ± 1.7 µM. For the same compound, the “SrtA IC50” value in data set [2] (recombinant SrtA, value in parentheses) is 33.1 ± 0.5 µg/mL.
